Laboratory results as given in patent publication US12528814B2, “Bifunctional degraders of interleukin-1 receptor-associated kinases and therapeutic use thereof” (NURIX THERAPEUTICS, INC., priority 2020, dated 2026).
Like-named read-outs stand apart in the source and are kept apart here.

Key:
IRAK4 [1] = molecular target: T1, IRAK4 (Homo sapiens (Human), UniProt Q9NWZ3); assay: IRAK4 Biochemical HTRF Kinase Assay; conditions: read-out: IRAK4 HTRF biochemical: IC50
Method in brief: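 IC50 values derive from non-linear regression of sixteen concentrations in duplicate. Kinase reaction ran 90 min at ambient temperature after adding 5 μM STK-S1 substrate, 10 mM ATP and 10 mM MgCl2 (reaction-solution levels, pre-dilution to 10 μl); phospho-peptide detected by HTRF after 60 min.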
Target sequence in this assay (Q9NWZ3 whole entry, species assumed): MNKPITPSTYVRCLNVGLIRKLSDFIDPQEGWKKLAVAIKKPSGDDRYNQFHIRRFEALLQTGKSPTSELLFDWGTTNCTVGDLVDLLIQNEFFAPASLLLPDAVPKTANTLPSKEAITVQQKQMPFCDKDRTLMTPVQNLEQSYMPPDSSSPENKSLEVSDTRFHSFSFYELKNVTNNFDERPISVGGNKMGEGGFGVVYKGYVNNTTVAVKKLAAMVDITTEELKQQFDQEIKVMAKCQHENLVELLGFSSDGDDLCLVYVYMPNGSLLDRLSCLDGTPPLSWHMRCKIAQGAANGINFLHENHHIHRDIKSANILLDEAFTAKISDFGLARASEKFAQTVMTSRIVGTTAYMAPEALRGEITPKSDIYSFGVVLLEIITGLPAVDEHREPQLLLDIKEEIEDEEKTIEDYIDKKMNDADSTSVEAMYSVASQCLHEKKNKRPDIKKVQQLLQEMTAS

IRAK4 [2] = molecular target: T1, IRAK4; assay: IRAK4 Degradation HiBiT Assay; conditions: HiBiT-tagged Jurkat cells, 4 hrs; for Dmax: Jurkat; for DC50: read-out: Cellular IRAK4 HiBiT: DC50
Target sequence in this assay (Q9NWZ3 whole entry): as the sequence (Q9NWZ3 whole entry, species assumed) above
Procedure: Compound dilution series (11-point, 3.16-fold dilutions in DMSO, columns 1-11 and 12-22) at 500× the final required concentrations were prepared in Labcyte LDV 384-well plates (cat. no. LP-0200) using a Labcyte Echo 550 Liquid Handler. The 500× solutions ranged from 5 mM to 0.5 μM (final assay concentration range 10 μM to 0.1 nM). Using the Echo, the 500× solutions were stamped into white, 384-well assay plates (Corning, cat. no. 3570) at 60 nL/well. […] C-terminal HiBiT-tagged Jurkat cells (polyclonal cell line or clone 8D5) were plated at 1×10^6 cells/mL, 30 μL/well (3×10^4 cells/well) in complete RPMI (10% FBS, 1% L-glutamine). Cells were incubated for 4 hrs at 32° C./6% CO2.
Following incubation, 30 uL of complete Nano-Glo HiBiT Lytic Detection Reagent (Nano-Glo HiBiT Lytic Buffer with 1:50 Nano-Glo HiBiT Lytic Substrate and 1:100 LgBiT Protein; Promega cat. no. N3040) was added. Cells were further incubated for 10 min at room temperature (RT). Luminescence units (LU) were read on an EnVision plate reader (Perkin Elmer, 0.1 sec per well). Percent IRAK4 remaining per sample was calculated as follows:
Using Graphpad Prism, % IRAK4 remaining values were plotted as a function of compound concentration.

[3] = read-out: Cellular IRAK4 HiBiT: Dmax, Table 5, multiple runs
[4] = read-out: Cellular IRAK4 HiBiT: Dmax, Table 4

For `CNc1cc(-c2ccc3cc(C#N)cnn23)ncc1-c1nnc([C@H]2CC[C@H](NC(=O)[C@H]3CC[C@H]3C(=O)N[C@H](C(=O)N3C[C@H](O)C[C@H]3C(=O)N[C@@H](C)c3ccc(-c4scnc4C)cc3)C(C)(C)C)CC2)s1` (racemic) [Example 143, (1RS,2SR)—N1-((1r,4R)-4-(5-(6-(3-cyanopyrrolo[1,2-b]pyridazin-7-yl)-4-(methylamino)pyridin-3-yl)-1,3,4-thiadiazol-2-yl)cyclohexyl)-N2—((S)-1-((2S,4R)-4-hydroxy-2-(((S)-1-(4-(4-methylthiazol-5-yl)phenyl)ethyl)carbamoyl)pyrrolidin-1-yl)-3,3-dimethyl-1-oxobutan-2-yl)cyclobutane-1,2-dicarboxamide], the IC50 (IRAK4 [1]; Table 5, multiple runs) was 1.6 nM, the Dmax (IRAK4 [2]; [3]) was 37% and the DC50 (IRAK4 [2]; Table 5, multiple runs) was 870 nM.

`CC(C)Nc1cc(-c2ccc3cc(C#N)cnn23)ncc1-c1nnc(N2CCN(C(=O)CCCCCNc3cccc4c3C(=O)N(C3CCC(=O)NC3=O)C4=O)CC2)s1` (stereo not drawn) [Example 9, 7-(5-(5-(4-(6-((2-(2,6-dioxopiperidin-3-yl)-1,3-dioxoisoindolin-4-yl)amino)hexanoyl)piperazin-1-yl)-1,3,4-thiadiazol-2-yl)-4-(isopropylamino)pyridin-2-yl)pyrrolo[1,2-b]pyridazine-3-carbonitrile] gave an IC50 (IRAK4 [1]; Table 4) of 2.9 nM, an IC50 (IRAK4 [1]; Table 5, multiple runs) of 2.9 nM and a Dmax (IRAK4 [2]; [4]) of 125%. The Dmax (IRAK4 [2]; [3]) was 125%, the DC50 (IRAK4 [2]; Table 4) was 218 nM and the DC50 (IRAK4 [2]; Table 5, multiple runs) was 217 nM.

`CNc1cc(-c2ccc3cc(C#N)cnn23)ncc1-c1nnc([C@H]2CC[C@@H](NC(=O)C3CCN(c4ccc5c(c4)C(=O)N(C4CCC(=O)NC4=O)C5=O)CC3)CC2)s1` (stereo partly drawn) [Example 133, N-((1s,4s)-4-(5-(6-(3-cyanopyrrolo[1,2-b]pyridazin-7-yl)-4-(methylamino)pyridin-3-yl)-1,3,4-thiadiazol-2-yl)cyclohexyl)-1-(2-(2,6-dioxopiperidin-3-yl)-1,3-dioxoisoindolin-5-yl)piperidine-4-carboxamide] gave an IC50 (IRAK4 [1]; Table 5, multiple runs) of 0.9 nM, a Dmax (IRAK4 [2]; [3]) of 111% and a DC50 (IRAK4 [2]; Table 5, multiple runs) of 51.4 nM.

Work on `CNc1cc(-c2ccc3cc(C#N)cnn23)ncc1-c1nnc(N2CCCC3(CN(Cc4ccc5c(c4)C(=O)N(C4CCC(=O)NC4=O)C5=O)C3)C2)s1` (stereo not drawn) [Example 122, 7-(5-(5-(2-((2-(2,6-dioxopiperidin-3-yl)-1,3-dioxoisoindolin-5-yl)methyl)-2,6-diazaspiro[3.5]nonan-6-yl)-1,3,4-thiadiazol-2-yl)-4-(methylamino)pyridin-2-yl)pyrrolo[1,2-b]pyridazine-3-carbonitrile] yielded an IC50 (IRAK4 [1]; Table 5, multiple runs) of 1.1 nM and a DC50 (IRAK4 [2]; Table 5, multiple runs) greater than 9980 nM.

Work on `CC(C)Nc1cc(-c2ccc3cc(C#N)cnn23)ncc1-c1nnc(N2CCN(C(=O)CCN3CCN(c4ccc5c(c4)C(=O)N(C4CCC(=O)NC4=O)C5=O)CC3)CC2)s1` (stereo not drawn) [Example 14, 7-(5-(5-(4-(3-(4-(2-(2,6-dioxopiperidin-3-yl)-1,3-dioxoisoindolin-5-yl)piperazin-1-yl)propanoyl)piperazin-1-yl)-1,3,4-thiadiazol-2-yl)-4-(isopropylamino)pyridin-2-yl)pyrrolo[1,2-b]pyridazine-3-carbonitrile] yielded an IC50 (IRAK4 [1]; Table 4) of 0.8 nM, an IC50 (IRAK4 [1]; Table 5, multiple runs) of 0.8 nM and a Dmax (IRAK4 [2]; [4]) of 99%. For the same compound, the Dmax (IRAK4 [2]; [3]) was 97%, the DC50 (IRAK4 [2]; Table 4) was 42.7 nM and the DC50 (IRAK4 [2]; Table 5, multiple runs) was 37.2 nM.

Compound `CNc1cc(-c2ccc3cc(C#N)cnn23)ncc1-c1nnc([C@H]2CC[C@H](NC(=O)C3CCN(c4cccc5c4C(=O)N(C4CCC(=O)NC4=O)C5=O)CC3)CC2)s1` (stereo partly drawn) [Example 139, N-((1r,4r)-4-(5-(6-(3-cyanopyrrolo[1,2-b]pyridazin-7-yl)-4-(methylamino)pyridin-3-yl)-1,3,4-thiadiazol-2-yl)cyclohexyl)-1-(2-(2,6-dioxopiperidin-3-yl)-1,3-dioxoisoindolin-4-yl)piperidine-4-carboxamide] has an IC50 (IRAK4 [1]; Table 5, multiple runs) of 0.9 nM, a Dmax (IRAK4 [2]; [3]) of 24% and a DC50 (IRAK4 [2]; Table 5, multiple runs) of 10.6 nM.

`CNc1cc(-c2ccc3cc(C#N)cnn23)ncc1-c1nnc([C@H]2CC[C@@H](NC(=O)CCC(=O)N[C@H](C(=O)N3C[C@H](O)C[C@H]3C(=O)N[C@@H](C)c3ccc(-c4scnc4C)cc3)C(C)(C)C)CC2)s1` [Example 121, N1-((1s,4R)-4-(5-(6-(3-cyanopyrrolo[1,2-b]pyridazin-7-yl)-4-(methylamino)pyridin-3-yl)-1,3,4-thiadiazol-2-yl)cyclohexyl)-N4—((S)-1-((2S,4R)-4-hydroxy-2-(((S)-1-(4-(4-methylthiazol-5-yl)phenyl)ethyl)carbamoyl)pyrrolidin-1-yl)-3,3-dimethyl-1-oxobutan-2-yl)succinamide] was tested, and the IC50 (IRAK4 [1]; Table 5, multiple runs) was 1.2 nM, the Dmax (IRAK4 [2]; [3]) was 95% and the DC50 (IRAK4 [2]; Table 5, multiple runs) was 1080 nM.

`CNc1cc(-c2ccc3cc(C#N)cnn23)ncc1-c1nnc(N2CCCC3(CN(Cc4ccc5c(c4)CN(C4CCC(=O)NC4=O)C5=O)C3)C2)s1` (stereo not drawn) [Example 123, 7-(5-(5-(2-((2-(2,6-dioxopiperidin-3-yl)-1-oxoisoindolin-5-yl)methyl)-2,6-diazaspiro[3.5]nonan-6-yl)-1,3,4-thiadiazol-2-yl)-4-(methylamino)pyridin-2-yl)pyrrolo[1,2-b]pyridazine-3-carbonitrile] gave an IC50 (IRAK4 [1]; Table 5, multiple runs) of 2.1 nM and a DC50 (IRAK4 [2]; Table 5, multiple runs) greater than 9980 nM.

`CC(C)Nc1cc(-c2ccc3cc(C#N)cnn23)ncc1-c1nnc(N2CCN(C3CCN(C(=O)Cc4ccc5c(c4)CN(C4CCC(=O)NC4=O)C5=O)CC3)CC2)s1` (stereo not drawn) [Example 75, 7-(5-(5-(4-(1-(2-(2-(2,6-dioxopiperidin-3-yl)-1-oxoisoindolin-5-yl)acetyl)piperidin-4-yl)piperazin-1-yl)-1,3,4-thiadiazol-2-yl)-4-(isopropylamino)pyridin-2-yl)pyrrolo[1,2-b]pyridazine-3-carbonitrile] showed an IC50 (IRAK4 [1]; Table 5, multiple runs) of 0.8 nM, a Dmax (IRAK4 [2]; [3]) of 111% and a DC50 (IRAK4 [2]; Table 5, multiple runs) of 8.59 nM.

`CNc1cc(-c2ccc3cc(C#N)cnn23)ncc1-c1nnc([C@H]2CC[C@H](N(C)C(=O)Cc3ccc4c(c3)CN(C3CCC(=O)NC3=O)C4=O)CC2)s1` (stereo partly drawn) [Example 168, N-((1r,4r)-4-(5-(6-(3-cyanopyrrolo[1,2-b]pyridazin-7-yl)-4-(methylamino)pyridin-3-yl)-1,3,4-thiadiazol-2-yl)cyclohexyl)-2-(2-(2,6-dioxopiperidin-3-yl)-1-oxoisoindolin-5-yl)-N-methylacetamide] showed an IC50 (IRAK4 [1]; Table 5, multiple runs) of 0.6 nM, a Dmax (IRAK4 [2]; [3]) of 20% and a DC50 (IRAK4 [2]; Table 5, multiple runs) of 2.63 nM.

In the case of `CNc1cc(-c2ccc3cc(C#N)cnn23)ncc1-c1nnc(N2CC3(CCN(C[C@@H]4CCN(c5ccc6c(c5)C(=O)N(C5CCC(=O)NC5=O)C6=O)C4)CC3)C2)s1` (stereo partly drawn) [Example 181, 7-(5-(5-(7-(((3S)-1-(2-(2,6-dioxopiperidin-3-yl)-1,3-dioxoisoindolin-5-yl)pyrrolidin-3-yl)methyl)-2,7-diazaspiro[3.5]nonan-2-yl)-1,3,4-thiadiazol-2-yl)-4-(methylamino)pyridin-2-yl)pyrrolo[1,2-b]pyridazine-3-carbonitrile], the IC50 (IRAK4 [1]; Table 5, multiple runs) is reported as 0.6 nM, the Dmax (IRAK4 [2]; [3]) is reported as 41% and the DC50 (IRAK4 [2]; Table 5, multiple runs) is reported as 6.94 nM.

`CNc1cc(-c2ccc3cc(C#N)cnn23)ncc1-c1nnc(N2CCN(C(=O)C[C@@H]3CCCN(c4cccc5c4C(=O)N(C4CCC(=O)NC4=O)C5=O)C3)CC2)s1` (stereo partly drawn) [Example 88, 7-(5-(5-(4-(2-((3S)-1-(2-(2,6-dioxopiperidin-3-yl)-1,3-dioxoisoindolin-4-yl)piperidin-3-yl)acetyl)piperazin-1-yl)-1,3,4-thiadiazol-2-yl)-4-(methylamino)pyridin-2-yl)pyrrolo[1,2-b]pyridazine-3-carbonitrile] gave an IC50 (IRAK4 [1]; Table 5, multiple runs) of 1.4 nM and a DC50 (IRAK4 [2]; Table 5, multiple runs) greater than 3330 nM.

`CC(C)Nc1cc(-c2ccc3cc(C#N)cnn23)ncc1-c1nnc(N2CCC3(CCN(C(=O)CNc4cccc5c4C(=O)N(C4CCC(=O)NC4=O)C5=O)CC3)CC2)s1` (stereo not drawn) [Example 82, 7-(5-(5-(9-((2-(2,6-dioxopiperidin-3-yl)-1,3-dioxoisoindolin-4-yl)glycyl)-3,9-diazaspiro[5.5]undecan-3-yl)-1,3,4-thiadiazol-2-yl)-4-(isopropylamino)pyridin-2-yl)pyrrolo[1,2-b]pyridazine-3-carbonitrile] was tested, and the IC50 (IRAK4 [1]; Table 5, multiple runs) was 3.1 nM, the Dmax (IRAK4 [2]; [3]) was 61% and the DC50 (IRAK4 [2]; Table 5, multiple runs) was 72.8 nM.

`CNc1cc(-c2ccc3cc(C#N)cnn23)ncc1-c1nnc(N2CCC(NC(=O)COc3cc(-c4scnc4C)ccc3CNC(=O)[C@@H]3C[C@@H](O)CN3C(=O)[C@@H](NC(=O)C3(F)CC3)C(C)(C)C)CC2)s1` [Example 97, (2S,4R)—N-(2-(2-((1-(5-(6-(3-cyanopyrrolo[1,2-b]pyridazin-7-yl)-4-(methylamino)pyridin-3-yl)-1,3,4-thiadiazol-2-yl)piperidin-4-yl)amino)-2-oxoethoxy)-4-(4-methylthiazol-5-yl)benzyl)-1-((S)-2-(1-fluorocyclopropane-1-carboxamido)-3,3-dimethylbutanoyl)-4-hydroxypyrrolidine-2-carboxamide] was tested, and the IC50 (IRAK4 [1]; Table 5, multiple runs) was 4.8 nM, the Dmax (IRAK4 [2]; [3]) was 59% and the DC50 (IRAK4 [2]; Table 5, multiple runs) was 265 nM.

With `Cc1ncsc1-c1ccc(CNC(=O)[C@@H]2C[C@@H](O)CN2C(=O)[C@@H](NC(=O)C2(F)CC2)C(C)(C)C)c(OCCCCCC(=O)N2CCN(c3nnc(-c4cnc(-c5ccc6cc(C#N)cnn56)cc4NC(C)C)s3)CC2)c1` [Example 42, (2S,4R)—N-(2-((6-(4-(5-(6-(3-cyanopyrrolo[1,2-b]pyridazin-7-yl)-4-(isopropylamino)pyridin-3-yl)-1,3,4-thiadiazol-2-yl)piperazin-1-yl)-6-oxohexyl)oxy)-4-(4-methylthiazol-5-yl)benzyl)-1-((S)-2-(1-fluorocyclopropane-1-carboxamido)-3,3-dimethylbutanoyl)-4-hydroxypyrrolidine-2-carboxamide] the IC50 (IRAK4 [1]; Table 4) was 17.3 nM, the IC50 (IRAK4 [1]; Table 5, multiple runs) was 17.3 nM and the Dmax (IRAK4 [2]; [4]) was 104%. It also gave a Dmax (IRAK4 [2]; [3]) of 104%, a DC50 (IRAK4 [2]; Table 4) of 336 nM and a DC50 (IRAK4 [2]; Table 5, multiple runs) of 315 nM.
